Test results as given in paper PMC2762440 (Journal of medicinal chemistry, 2009).
Each block holds one compound with its values, some of them ahead of it.

Columns and labels:
ICR mice = experiment: Forced-swim test in ICR mice; format: in vivo, mouse; conditions: for immobility in the forced-swim test vs vehicle: 3 mg/kg, P < 0.05; for duration of immobility in the forced-swim test: doses of 0.3 and 3 mg/kg
Balb/c mice = experiment: Forced-swim test in Balb/c mice; format: in vivo, mouse; conditions: for duration of immobility in the forced-swim test: acute, i.p. 30 min prior; for immobility in the forced-swim test vs vehicle: subchronic, i.p. 23, 5 and 1 hr prior
Human PDE4D3 = Human PDE4D3 (Homo sapiens, UniProt Q08499); experiment: Inhibition of cAMP hydrolysis by recombinant PDE4D3; format: biochemical; conditions: read-out: Human PDE4D3 Ki, recombinant enzyme
[1] = Human liver microsome stability assay; format: in vitro ADME; conditions: human liver microsomes + NADPH, 40 µM compound, 37 °C
[2] = Mouse liver microsome stability assay; format: in vitro ADME; conditions: mouse liver microsomes + NADPH, 40 µM compound, 37 °C
[3] = ICR mice, acute, i.p. 30 min prior

Human PDE4D3, sequence (Q08499 1-673 isoform Q08499-2): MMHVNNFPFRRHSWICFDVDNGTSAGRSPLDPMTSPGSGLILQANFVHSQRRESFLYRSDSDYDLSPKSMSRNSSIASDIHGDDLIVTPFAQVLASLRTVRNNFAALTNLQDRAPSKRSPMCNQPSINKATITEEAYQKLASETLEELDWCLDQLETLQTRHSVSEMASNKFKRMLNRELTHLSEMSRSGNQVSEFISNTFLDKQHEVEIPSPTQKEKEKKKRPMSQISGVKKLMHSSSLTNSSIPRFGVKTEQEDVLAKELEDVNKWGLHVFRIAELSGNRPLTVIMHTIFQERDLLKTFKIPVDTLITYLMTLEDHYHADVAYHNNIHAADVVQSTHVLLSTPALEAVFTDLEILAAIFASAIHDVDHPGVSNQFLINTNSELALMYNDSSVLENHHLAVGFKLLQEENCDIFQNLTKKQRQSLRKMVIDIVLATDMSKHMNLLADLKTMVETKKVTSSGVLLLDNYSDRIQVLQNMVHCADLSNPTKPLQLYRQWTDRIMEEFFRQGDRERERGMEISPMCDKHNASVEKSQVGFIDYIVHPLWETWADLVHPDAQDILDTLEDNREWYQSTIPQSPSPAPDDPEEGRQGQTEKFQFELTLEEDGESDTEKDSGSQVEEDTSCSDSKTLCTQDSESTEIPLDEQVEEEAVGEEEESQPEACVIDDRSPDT

Ki (Human PDE4D3): 6.3 nM
SMILES: COc1ccc(C2=NNC(=O)C3CC=CCC23)cc1OC (stereo not drawn) [Compound 19, 4-(3,4-Dimethoxy-phenyl)-4a,5,8,8a-tetrahydro-2H-phthalazin-1-one, reference compound]
immobility in the forced-swim test vs vehicle (ICR mice; [3]): significantly decreased immobility | duration of immobility in the forced-swim test (ICR mice; [3]): decreased duration of immobility in a dose-dependent manner

HLM t1/2 [1]: not detectably metabolized
SMILES: COc1ccc(F)cc1CCC1CCC(CCNCCCCCN2N=C(c3ccc(OC)c(OC)c3)[C@H]3CC=CC[C@H]3C2=O)O1 (stereo partly drawn) [Compound 21]
immobility in the forced-swim test vs vehicle (ICR mice; [3]): significantly decreased immobility | duration of immobility in the forced-swim test (ICR mice; [3]): decreased duration of immobility in a dose-dependent manner | immobility in the forced-swim test vs vehicle (Balb/c mice; 1 mg/kg): did not change immobility

HLM t1/2 [1]: No detectable metabolic instability
SMILES: COc1ccc(F)c(CCCC2CCC(CCNCCCCCN3N=C(c4ccc(OC)c(OC)c4)[C@H]4CC=CC[C@H]4C3=O)O2)c1 (stereo partly drawn) [Compound 22]

MLM t1/2 [2]: 58.5 min
SMILES: CNCCC1CCC(CCc2cc(F)ccc2OC)O1 (stereo not drawn) [Compound 24]

Second part, the compound before the results:

SMILES: COc1ccc(F)cc1CCC1CCC(CCN)O1 (stereo not drawn) [Compound 14, 2-{5-[3-(5-Fluoro-2-methoxy-phenyl)-ethyl]-tetrahydro-furan-2-yl}-ethylamine]
immobility in the forced-swim test (ICR mice; ICR mice, acute, i.p. 30 min prior, 10 and 30 mg/kg): tended to decrease immobility, but this effect was not statistically significant | duration of immobility in the forced-swim test (Balb/c mice; 10 mg/kg): did not markedly alter the duration of immobility | immobility in the forced-swim test vs vehicle (Balb/c mice; 10 mg/kg): did not change immobility

SMILES: COc1ccc(F)cc1CCCC1CCC(CCN)O1 (stereo not drawn) [Compound 15, 2-{5-[3-(5-Fluoro-2-methoxy-phenyl)-propyl]-tetrahydro-furan-2-yl}-ethylamine]
duration of immobility in the forced-swim test (Balb/c mice; 10 mg/kg): did not markedly alter the duration of immobility | immobility in the forced-swim test vs vehicle (Balb/c mice; 1 mg/kg): did not change immobility

SMILES: COc1ccc(C2CNC(=O)C2)cc1OC1CCCC1 (stereo not drawn) [Rolipram, reference compound]
effect in the forced-swim test (ICR mice; acute treatment 0.5 mg/kg, data not shown): did not alter FST behavior
